Reference: patent US20220324909A1, “THERAPEUTIC PEPTIDES” (COHBAR, INC., priority 2019, published 2022)
Non-standard residues stand in square brackets, D forms with d. Primed or numbered codes have the meaning given here. No end group written: not given here. PEG12′ = polyethylene glycol moiety of 12 units

How the values were obtained:
H4-IIE cells = test: Glucose production in cultured H4-IIE cells and insulin dependence; assay type: cell-based, rat; settings: 24 h; for Glucose Production, Percent of Control Activity No Insulin: peptide 10 μM alone, relative to untreated cells; for Glucose Production, Percent of Control Activity With Insulin: peptide 10 μM with 800 μM insulin, relative to insulin treated cells
Description: The effect of the peptides on glucose homeostasis can be assessed using an assay to monitor glucose production by cultured cells such as rat hepatocytes. […] Following 24 h incubation, conditioned medium from each well was transferred to a fresh 96-well plate. Glucose concentrations in the medium were determined using a Glucose Assay kit (Abcam; Cambridge, Mass.) according to the manufacturer's instructions; absorbance measured using a Cytation 3 plate reader at 570 nm (BioTek, Winooski, Vt.). […] Untreated cells were used as reference for maximal glucose production. […] Insulin at 800 μM was used as a modest inhibitor glucose production. […] Data are presented as averages values from 2-4 independent experiments with each data point performed in triplicate.

C2C12 cells = test: Glucose utilization in cultured C2C12 cells and insulin dependence; assay type: cell-based, mouse; settings: for Glucose Utilization, Percent of Control Activity No Insulin: peptide 10 μM alone, glucose in medium relative to untreated cells; for Glucose Utilization, Percent of Control Activity No Insulin / Glucose Utilization, Percent of Control Activity With Insulin: 22 h; for Glucose Utilization, Percent of Control Activity With Insulin: peptide 10 μM with 5-20 nM insulin, glucose in medium relative to insulin treated cells
Text: The effect of the peptides on glucose homeostasis can be assessed using an assay to monitor glucose utilization by cultured cells such as mouse myotubes. […] C2C12 mouse muscle cell line was purchased from Millipore Sigma (Saint Louis, Mo.). […] Three days after plating the medium was removed and with Differentiation Medium (DMEM/low glucose (1 g/L)+2% Horse Serum+antibiotics) added. […] After 5 days of differentiation, the medium was removed from myotube cultures and replaced with Assay Medium (DMEM/low glucose (1 g/L)+antibiotics). […] Following the 5 h incubation the medium was removed and fresh Assay Medium containing compounds added; 10 μM peptide in absence or presence of 5-20 nM insulin, or 1 mM metformin as a potent stimulator of glucose utilization. […] Following 22 h incubation, conditioned medium from each well was transferred to a fresh 96-well plate. Glucose concentrations in the medium were determined using a Glucose Assay kit (Abcam; Cambridge, Mass.) according to the manufacturer's instructions; absorbance measured using a Cytation 3 plate reader at 570 nm (BioTek, Winooski, Vt.). Absorbance values were expressed as percent control activity relative to untreated treated cells (no insulin) for 10 μM peptide alone or 5-20 nM insulin treated cells (with insulin) for 10 μM peptide in presence of 5-20 nM insulin. Untreated cells were used as reference for basal glucose utilization. The relative standard deviation from plate to plate of untreated control was <10%. Metformin at 1 mM was used as a potent control for increasing glucose utilization. Glucose levels for metformin (1 mM) treatment were <10% of the untreated control value. Data are presented as averages values from 2-3 independent experiments with each data point performed in triplicate.

3T3-L1 mouse adipocytes = test: Free fatty acid levels in cultured 3T3-L1 mouse adipocytes and insulin dependence (Example 17); assay type: cell-based; settings: isoproterenol 0.1 nM; for Free Fatty Acid Levels, Percent of Isoproterenol Control Activity No Insulin: peptide 10 μM alone, relative to isoproterenol treated cells; for Free Fatty Acid Levels, Percent of Isoproterenol Control Activity With Insulin: peptide 10 μM with 0.25 nM insulin, relative to 0.25 nM insulin treated cells
Description: The effect of the peptides on fatty acid metabolism can be assessed using an assay to monitor free fatty acid levels produced by cultured cells such as mouse adipocytes. […] Following 3 h incubation, conditioned medium from each well was transferred to a fresh 96-well plate. […] Absorbance values were expressed as percent control activity relative to 0.1 nM isoproterenol treated cells (no insulin) for 10 μM peptide alone or 0.25 nM insulin treated cells (with insulin) for 10 μM peptide in presence of 0.25 nM insulin. […] Data are presented as averages values from 2-3 independent experiments with each data point performed in triplicate.

| Compound | Glucose Production, Percent of Control Activity No Insulin (H4-IIE cells) [%] | Glucose Production, Percent of Control Activity With Insulin (H4-IIE cells) [%] | Glucose Utilization, Percent of Control Activity No Insulin (C2C12 cells) [%] | Glucose Utilization, Percent of Control Activity With Insulin (C2C12 cells) [%] | Free Fatty Acid Levels, Percent of Isoproterenol Control Activity No Insulin (3T3-L1 mouse adipocytes) [%] | Free Fatty Acid Levels, Percent of Isoproterenol Control Activity With Insulin (3T3-L1 mouse adipocytes) [%] | Glucose levels, % of untreated control value (C2C12 cells; metformin 1 mM, positive control) [%] |
| --- | --- | --- | --- | --- | --- | --- | --- |
| 20 (KRRMMGMVFQCLCGA; (1)..(1) PEG12; (15)..(15) d-Ala) [compound 20] | 98.4 | 108.6 | 108 | 91 | 101 | 90.7 |  |
| 21 (RRMMGMVFQCLCG[dA]K(PEG12′); cysteine pairing not given here) [compound 21] | 98.4 | 72.7 | 107.5 | 86 | 109 | 59.1 |  |
| 33 (RRLLGLVFQSLCG[dA]) [compound 33] | 113.8 |  |  |  | 98 | 80 |  |
| 34 (RXMMGMVFQSLCGA; (2)..(2) Xaa is Aib (alpha-aminoisobutyric acid); (14)..(14) D-Ala) [compound 34] | 96.9 |  |  |  | 104 | 122 |  |
| 35 (RXLLGLVFQSLCGA; (2)..(2) Xaa is Aib (alpha-aminoisobutyric acid); (14)..(14) D-Ala) [compound 35] | 98.1 |  |  |  | 101 | 112 |  |
| 38 (RRMMGMVEQSLCG[dA]) [compound 38] | 98.5 |  |  |  | 101 | 68 |  |
| 39 (RRMMGMVFQSLEG[dA]) [compound 39] | 103.9 |  |  |  | 97 | 67 |  |
| 40 (RRLLGLVEQSLCG[dA]) [compound 40] | 109.6 |  |  |  | 101 | 76 |  |
| 41 (RRLLGLVFQSLEG[dA]) [compound 41] | 122.7 |  |  |  | 97 | 73 |  |
| 44 (MMGMV) [compound 44] | 98.8 |  |  |  | 103 | 96 |  |
| 45 (MMGMVF) [compound 45] | 106.9 |  |  |  | 105 | 89 |  |
| 46 (MMGMVFQ) [compound 46] | 105.0 |  |  |  | 98 | 104 |  |
| 47 (MMGMVFQS) [compound 47] | 108.0 |  |  |  | 101 | 93 |  |
| 48 (MMGMVFQSL) [compound 48] | 110.0 |  |  |  | 92 | 93 |  |
| 49 (MMGMVFQSLCG[dA]) [compound 49] | 120.1 |  |  |  | 101 | 103 |  |
| 50 (RMMGMVF) [compound 50] | 99.8 |  |  |  | 103 | 101 |  |

| Compound | Glucose Production, Percent of Control Activity No Insulin (H4-IIE cells) [%] | Glucose Production, Percent of Control Activity With Insulin (H4-IIE cells) [%] | Glucose Utilization, Percent of Control Activity No Insulin (C2C12 cells) [%] | Glucose Utilization, Percent of Control Activity With Insulin (C2C12 cells) [%] | Free Fatty Acid Levels, Percent of Isoproterenol Control Activity No Insulin (3T3-L1 mouse adipocytes) [%] | Free Fatty Acid Levels, Percent of Isoproterenol Control Activity With Insulin (3T3-L1 mouse adipocytes) [%] | Glucose levels, % of untreated control value (C2C12 cells; metformin 1 mM, positive control) [%] |
| --- | --- | --- | --- | --- | --- | --- | --- |
| 51 (RMMGMVFQ) [compound 51] | 106.1 |  |  |  | 99 | 79 |  |
| 52 (RMMGMVFQS) [compound 52] | 108.4 |  |  |  | 102 | 79 |  |
| 53 (RMMGMVFQSL) [compound 53] | 91.9 |  |  |  | 101 | 81 |  |
| 54 (RMMGMVFQSLCG[dA]) [compound 54] | 112.8 |  |  |  | 102 | 75 |  |
| 55 (RRMMGM) [compound 55] | 92.6 |  |  |  | 100 | 90 |  |
| 56 (RRMMGMV) [compound 56] | 97.1 |  |  |  | 99 | 94 |  |
| 57 (RRMMGMVF) [compound 57] | 98.3 |  |  |  | 96 | 87 |  |
| 58 (RRMMGMVFQ) [compound 58] | 114.5 |  |  |  | 110 | 114 |  |
| 59 (RRMMGMVFQS) [compound 59] | 114.0 |  |  |  | 111 | 114 |  |
| 60 (RRMMGMVFQSL) [compound 60] | 115.9 |  |  |  | 110 | 101 |  |
| 61 (Ac-RRMMGMVFQSLCG[dA]) [compound 61] | 122.7 |  |  |  | 112 | 143 |  |
| 62 (RRMMGMVFQSLCG[dA]-NH2) [compound 62] | 105.6 |  |  |  | 112 | 109 |  |
| 63 (Ac-RRMMGMVFQSLCG[dA]-NH2) [compound 63] | 107.5 |  |  |  | 112 | 92 |  |
| CC[C@H](C)[C@H](NC(=O)CNC(=O)[C@@H](NC(=O)[C@@H](NC(=O)[C@H](CCCNC(=N)N)NC(=O)[C@@H](N)CCCNC(=N)N)[C@@H](C)CC)[C@@H](C)CC)C(=O)N[C@H](C(=O)N[C@@H](Cc1ccccc1)C(=O)N[C@@H](CCC(N)=O)C(=O)N[C@@H](CO)C(=O)N[C@@H](CC(C)C)C(=O)N[C@@H](CS)C(=O)NCC(=O)N[C@H](C)C(=O)O)C(C)C [compound 43] | 115.8 |  |  |  | 103 | 91 |  |
| CN(C)C(=N)N=C(N)N [metformin, reference compound] |  |  |  |  |  |  | < 10 |
